The source made the active and inactive calls. No cut-off for these calls is given here.
Tests used:
Mus musculus [1] = species on record: Mus musculus; experiment: Compound was evaluated for anticonvulsant activity against audiogenic induced seizures after pretreatment with aniracetam (tonic phase); p <0.01; type: functional
Mus musculus [2] = species on record: Mus musculus; experiment: Compound was evaluated for anticonvulsant activity against AMPA induced seizures in DBA/2 mice( clonic phase); type: functional
Mus musculus [3] = species on record: Mus musculus; experiment: Compound was evaluated for anticonvulsant activity against AMPA induced seizures in DBA/2 mice( tonic phase); type: functional
Mus musculus [4] = species on record: Mus musculus; experiment: Compound was evaluated for anticonvulsant activity against MES induced seizures(tonic phase) in swiss mice; type: functional
Mus musculus [5] = species on record: Mus musculus; experiment: Compound was evaluated for anticonvulsant activity against PTZ induced seizures (clonic phase) in swiss mice; type: functional
Mus musculus [6] = species on record: Mus musculus; experiment: Compound was evaluated for anticonvulsant activity against audiogenic induced seizures after pretreatment with aniracetam (clonic phase); p <0.01; type: functional
[7] = Compound was evaluated for toxic dose on locomotor assessed by rotarod test in mice; type: ADME; conditions: mouse, in vivo
Mus musculus [8] = species on record: Mus musculus; experiment: Compound was evaluated for anticonvulsant activity against audiogenic seizures in DBA/2 mice( clonic phase); type: functional
Mus musculus [9] = species on record: Mus musculus; experiment: Compound was evaluated for anticonvulsant activity against audiogenic seizures in DBA/2 mice( tonic phase); type: functional
Mus musculus [10] = species on record: Mus musculus; experiment: Compound was evaluated for anticonvulsant activity against audiogenic induced seizures after pretreatment with aniracetam (tonic phase); p< 0.01; type: functional
Mus musculus [11] = species on record: Mus musculus; experiment: Compound was evaluated for anticonvulsant activity against audiogenic induced seizures after pretreatment with aniracetam (clonic phase); p< 0.01; type: functional
[12] = Ratio between TD50 and ED50 from the clonic phase of the audiogenic seizures was determined; type: ADME
Mus musculus [13] = species on record: Mus musculus; experiment: Compound was evaluated for anticonvulsant activity against audiogenic induced seizures after pretreatment with aniracetam (clonic phase); ND means not detected; type: functional, organism-based
Mus musculus [14] = species on record: Mus musculus; experiment: Compound was evaluated for anticonvulsant activity against audiogenic induced seizures after pretreatment with aniracetam (tonic phase); ND means not detected; type: functional, organism-based
Mus musculus [15] = species on record: Mus musculus; experiment: Compound was evaluated for anticonvulsant activity against audiogenic induced seizures after pretreatment with aniracetam (clonic phase); type: functional
Mus musculus [16] = species on record: Mus musculus; experiment: Compound was evaluated for anticonvulsant activity against audiogenic induced seizures after pretreatment with aniracetam (tonic phase); type: functional
Mus musculus [17] = species on record: Mus musculus; experiment: Compound was evaluated for anticonvulsant activity against audiogenic induced seizures after pretreatment with aniracetam (tonic phase); p<0.01; type: functional
Mus musculus [18] = species on record: Mus musculus; experiment: Compound was evaluated for anticonvulsant activity against audiogenic induced seizures after pretreatment with aniracetam (clonic phase); p<0.01; type: functional

| SMILES | ED50 (Mus musculus [2]) [mg/kg] | ED50 (Mus musculus [3]) [mg/kg] | ED50 (Mus musculus [4]) [mg/kg] | ED50 (Mus musculus [5]) [mg/kg] | TD50 [7] [mg/kg] | ED50 (Mus musculus [8]) [mg/kg] | ED50 (Mus musculus [9]) [mg/kg] | also measured |
| --- | --- | --- | --- | --- | --- | --- | --- | --- |
| COc1cc2c(cc1OC)C(c1ccc(N)cc1)=NNC(=O)C2 | 9.93 | 7.73 | 4.92 | 6.99 | 17.4 | – | – | ED50 (Mus musculus [1]): 18 mg/kg; ED50 (Mus musculus [6]): 20.2 mg/kg |
| Nc1ccc(C2=NNC(=O)Cc3cc4c(cc32)OCO4)cc1 | 11.2 | 8.41 | 9.48 | 21.2 | 29.3 | 6.44 | 3.22 | ED50 (Mus musculus [10]): 11.7 mg/kg; ED50 (Mus musculus [11]): 18.5 mg/kg |
| O=C1Cc2cc3c(cc2C(c2ccc(O)cc2)=NN1)OCO3 | – | – | – | – | 44.7 | 15.5 | 14.7 | selectivity ratio [12]: 2.9 |
| Nc1cccc(C2=NNC(=O)Cc3cc4c(cc32)OCO4)c1 | 8.62 | 7.03 | 5.7 | 11.9 | 29.8 | 5.32 | 3.74 | ED50 (Mus musculus [13]): inactive; ED50 (Mus musculus [14]): inactive |
| O=C1Cc2cc3c(cc2C(c2ccccc2)=NN1)OCO3 | 20.8 | 16.8 | 12.6 | 23.1 | 44.6 | 12.1 | 11.4 | ED50 (Mus musculus [13]): inactive; ED50 (Mus musculus [14]): inactive |
| COc1cc2c(cc1OC)C(c1ccccc1)=NNC(=O)C2 | 18.5 | 11.9 | 10.6 | 19.1 | 42.1 | 10 | – | ED50 (Mus musculus [15]): 60.2 mg/kg; ED50 (Mus musculus [16]): 44 mg/kg |
| CC1=NN=C(c2ccc(N)cc2)c2cc3c(cc2C1)OCO3 [GYKI-52466] | 16.8 | 11.9 | – | 20 | 22.3 | – | – | ED50 (Mus musculus [17]): 29.3 mg/kg; ED50 (Mus musculus [18]): 39.3 mg/kg |
| COc1cc2c(cc1OC)C(c1cccc(N)c1)=NNC(=O)C2 | – | – | – | – | 15.9 | – | – | – |
| COc1ccc(C2=NNC(=O)Cc3cc4c(cc32)OCO4)cc1 | – | – | – | – | > 62.1 | > 37.2 | > 37.2 | – |
